The target in data set [1] is T1, GIPR (glucose-dependent insulinotropic peptide receptor) (Homo sapiens, UniProt P48546).
T1 sequence (P48546 22-466): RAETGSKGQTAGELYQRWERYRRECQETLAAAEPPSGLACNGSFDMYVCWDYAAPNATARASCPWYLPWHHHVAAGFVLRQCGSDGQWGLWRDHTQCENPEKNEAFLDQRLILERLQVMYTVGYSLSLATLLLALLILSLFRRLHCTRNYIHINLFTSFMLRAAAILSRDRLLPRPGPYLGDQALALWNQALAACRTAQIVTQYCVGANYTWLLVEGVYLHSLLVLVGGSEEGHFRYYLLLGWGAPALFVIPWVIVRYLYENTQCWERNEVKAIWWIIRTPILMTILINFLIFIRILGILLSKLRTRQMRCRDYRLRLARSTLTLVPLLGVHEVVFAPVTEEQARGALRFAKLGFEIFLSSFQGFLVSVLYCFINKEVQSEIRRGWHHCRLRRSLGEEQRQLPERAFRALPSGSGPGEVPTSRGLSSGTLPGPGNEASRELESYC
Kind of data set: Inhibition of GIP-stimulated cAMP production in CHO cells expressing GIPR. It counts as cell-based. (In general: Cyclic AMP is a second messenger, typically raised through Gs and lowered through Gi signalling.)
Protocol: Transfected Chinese hamster ovary (CHO) cell lines were acquired and maintained as previously described [17], [20]. These included separate cell lines stably expressing human GCGR (hGCGR), mouse GCGR, rhesus GGCR, glucose-dependent insulinotropic peptide receptor (GIPR), GLP-1 receptor (GLP-1R), pituitary adenylate cyclase-activating polypeptide receptor type 1 (PAC1R), and vasoactive adenylate cyclase-activating polypeptide receptor type 2 (VPAC2R). […] Functional antagonism was assayed by measuring the production of cAMP in intact CHO cells stimulated by agonists specific for their cognate receptors (i.e., glucagon for GCGR-expressing cell lines, GIP for the GIPR-expressing line, etc.).

Data set [2] can be described thus: Pharmacokinetics / plasma GRA1 concentrations in rhesus monkeys. It counts as in vivo, rhesus monkey.
Data set [3] relates to hGCGR.ob/ob mice. The experiment in a line: Antihyperglycemic efficacy in hGCGR.ob/ob mice (acute and chronic). It counts as in vivo, hGCGR.ob/ob mouse. The text has this:
The present study made use of a line of hGCGR-expressing mouse (“hGCGR mouse”) generated previously by substituting the hGCGR gene for the mouse GCGR gene. These mice were crossed with C57BL/6J.ob/+ mice (Jackson Laboratories, Bar Harbor, ME) to obtain an hGCGR.ob/+ mouse line. The hGCGR.ob/+ mice were then intercrossed to obtain hGCGR.ob/ob, hGCGR.ob/+, and hGCGR.+/+ mice (with the hGCGR.ob/+ and hGCGR.+/+ mice serving as littermate controls). […] obese (DIO) hGCGR mice were generated by maintaining hGCGR mice on a high-fat diet (HFD) in which 45–60% of calories were in fat (Product S3282, Bio-Serv, Frenchtown, NJ). High-fat-diet-streptozotocin-treated (HFD/STZ) diabetic mice were generated in-house as previously described.
Acute glucose lowering was studied in non-fasted hGCGR.ob/ob mice and HFD/STZ mice administered single doses p.o. of 1, 3 and 10 mg/kg GRA1 in 10 mL/kg 0.5% aqueous methylcellulose. Animals were fasted during the interval between dosing and the final blood glucose measurement. Glucose was measured in blood from tail bleeds using a OneTouch glucometer. In the experiments with hGCGR HFD/STZ mice, treatment groups were matched with respect to body weight and blood glucose levels.
Animals were dosed chronically with GRA1 and the DPP-4 inhibitor des-fluoro-sitagliptin by administering these agents as food admixtures. The admixtures were prepared in-house and by Research Diets (New Brunswick, NJ), with drug concentrations adjusted weekly on the basis of average food consumption and animal weight to provide targeted daily doses. In the GRA1 experiments, the targeted doses were 3, 6, 10, and 30 mg/kg•day. In des-fluoro-sitagliptin experiments, the targeted dose was 200 mg/kg•day, a relatively high amount necessary because this compound has a half-life in rodents of 1–2 h.
Plasma glucagon and active GLP-1 were measured using commercial ELISA kits (Linco Research Immunoassay, St. Charles, MO). […] Plasma insulin was determined by ELISA with a commercial kit (ALPCO Diagnostics, Windham, NH). Plasma concentrations of glycated hemoglobin A1c (HbA1c) were measured using a Micromat II test kit from Bio-Rad Laboratories (Hercules, CA). Total cholesterol, low-density lipoprotein cholesterol (LDL-c) and non-LDL-c, and aspartate aminotransferase were measured using a Roche P Modular Clinical Chemistry analyzer (Indianapolis, IN).
Figure 4 GRA1 lowers blood glucose in the DIO hGCGR and hGCGR.ob/ob mouse. Mean (±SEM) blood glucose concentrations in (A) non-fasted and (B) fasted DIO hGCGR mice treated with approximately 3 and 10 mg/kg·day GRA1 provided as a food admixture. (Additional data from this study are in Table 2). (C) Mean (±SEM) blood glucose concentrations in the hGCGR.ob/ob mouse following single oral doses of 1, 3, or 10 mg/kg GRA1 or vehicle. (D) Mean (±SEM) non-fasted blood glucose concentrations in hGCGR.ob/ob mice treated for 2–8 weeks with control diet or 10 mg/kg·day GRA1 administered as diet admixture. *p<0.05, **p<0.01, and ***p<0.001 in timepoint-matched comparisons with controls; n = 8 in each group.

Results on 1 molecule are retold here after article PMC3501516, “Anti-Diabetic Efficacy and Impact on Amino Acid Metabolism of GRA1, a Novel Small-Molecule Glucagon Receptor Antagonist” (PLoS ONE, 2012).

As to `COc1ccc2cc(-c3cc(-c4cc(C(F)(F)F)ccc4F)nn3[C@@H](C)c3ccc(C(=O)NCCC(=O)O)cc3)ccc2c1` [GRA1, N-[4-((1S)-1-{3-(2-fluoro-5-trifluoromethylphenyl)-5-[6-methoxynaphth-2-yl]-1H-pyrazol-1-yl}ethyl)benzoyl]-β-alanine], the IC50 (in general, the concentration that gives 50% inhibition) in data set [1] came out at 933 nM. For the same molecule, the concentration at 1 h in data set [2] (rhesus monkey, plasma, oral, 1 mg/kg, 1 h postdose (glucagon challenge)) worked out at 200 nM. For the same molecule, in data set [2] (rhesus monkey, plasma, single oral dose 2 mg/kg, read-out: Apparent plasma terminal half-life (converted)), the half-life (usually how long it takes for the measured level to halve) was 6.3 h. In data set [2] (single oral dose 2 mg/kg), the “Fraction of the dose absorbed” value was 55% and the Route of excretion entry is “nearly all absorbed drug was excreted unchanged via the bile”. In addition, the “Non-fasted blood glucose lower than control diet” value in data set [3] (10 mg/kg•day, 2, 4 and 8 weeks) is 40–50%. Also, the “Food intake, body weight, fasting insulin levels vs control diet” value in data set [3] (10 mg/kg•day, 8 weeks (data not shown)) is listed as “No differences”. Further, the “Mean fasted blood glucose” value in data set [3] (10 mg/kg•day, 8 weeks, control diet 189±36) is 90.8 ± 7.8 mg/dL. Also, the Mean plasma glucagon in data set [3] (10 mg/kg•day, 8 weeks, control diet 959±90) was determined as 1356 ± 113 pg/mL. Besides, in data set [3] (10 mg/kg•day, 8 weeks, controls 15.6±2.0), the “Total GLP-1” value is 26.5 ± 3.0 pM. Moreover, the “Effect on blood glucose, single dose” value in data set [3] (single doses of 3 and 10 mg/kg vs vehicle) is listed as “lowered blood glucose significantly”.
